The subject of series [1] is RANKL mRNA. The series can be described thus: Antisense inhibition of RANKL mRNA in proximal tibia and calvaria of mice after PTH infusion: dose response and delivery method (Table 9). It counts as in vivo, mouse. How it is done:
In accordance with the present invention, the levels of RANKL in the proximal tibia and calvaria in mice were measured following antisense oligonucleotide treatment and PTH infusion.
Female Swiss-Webster mice (5-8 wks old) fed a low-calcium diet were treated with ISIS 180819 (SEQ ID NO: 185) by subcutaneous injection at a dose of either 30 mg/kg or 50 mg/kg or intraperitoneal injection at a dose of either 15 mg/kg, 30 mg/kg or 50 mg/kg. After 2 weeks of daily treatment, the mice were infused with PTH at a dose of 1 ug/100 g/6 hr. After 24 hours of PTH infusion (total PTH delivery of 4 ug/100 g), the mice were sacrificed. The proximal tibia and calvaria were isolated and the level of RANKL mRNA expression was determined in each using two different primer-probe sets to confirm the results. The first primer-probe set was #1207, consisting of […] (forward primer, SEQ ID NO: 349), […] (reverse primer, SEQ ID NO: 350) and […] (probe, SEQ ID NO: 351). The second primer-probe set was #1015, consisting of […] (forward primer, SEQ ID NO: 352), […] (reverse primer, SEQ ID NO: 353) and […] (probe, SEQ ID NO: 354). The results are expressed as percent inhibition relative to PTH treatment alone and represent the average of eight mice per group.

The subject of series [2] is RANKL mRNA. Kind of series: RANKL mRNA % inhibition after PTH infusion in mice treated with RANKL antisense oligonucleotides for two weeks (Table 10). It counts as in vivo, mouse. The conditions noted are these: then 24 h PTH infusion, normalized to PTH alone. As to the method: (§1) Female Swiss-Webster (5-8 wks old) mice fed a low-calcium diet were dosed subcutaneously for two weeks with either the oligonucleotides ISIS 180819 (SEQ ID NO: 185) or 180814 (SEQ ID NO: 180) at concentrations of 5 mg/kg, 15 mg/kg, 30 mg/kg, or 40 mg/kg. A control group of mice were treated with calcitonin (400 ng) plus PTH (1 ug/100 g/6 hr), PTH alone (1 ug/100 g/6 hr) or saline. Treatment with oligonucleotides was followed with infusion of PTH by subcutaneously implanted mini-pumps at a dose of 1 ug/100 g/6 hr. After 24 hours of PTH infusion (total PTH delivery of 4 ug/100 g), the mice were sacrificed and the serum calcium concentration was measured with the Sigma Diagnostics Calcium Kit (Sigma-Aldrich). The data, summarized in Table 10 are averages from eight mice. Percent mRNA inhibition is normalized to PTH alone treatment.

Series [3] deals with mouse RANKL mRNA. The series can be described thus: Antisense inhibition of mouse RANKL mRNA levels in C2C12 cells, quantitative real-time PCR (Table 2). It counts as cell-based. Also on record: concentration or dose not given beside the values. The conditions noted are these: averages from three experiments. A digest of the protocol:
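C2C12 cells seeded at ~10,000 cells/cm^2, treated with antisense oligonucleotides (all C as 5-methylcytidine) in triplicate and harvested 16-24 h later. Mouse RANKL mRNA quantified by real-time RT-PCR with a FAM/TAMRA probe, with mouse GAPDH (JOE/TAMRA probe) as reference.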
For orientation: Real-time PCR tracks product formation cycle by cycle.

The subject of series [4] is RANKL mRNA. Kind of series: Antisense inhibition of RANKL mRNA expression followed by PTH treatment in primary mouse osteoblast cells: dose response (Table 8). It counts as cell-based. The conditions noted are these: for inhibition of PTH-induced increase in RANKL mRNA expression: primary mouse osteoblast cells, 63 nM, 125 nM, 250 nM, or 500 nM, 24 hours, FuGENE 6, 10 nM PTH last 2 hours; for % RANKL mRNA inhibition: 10 nM PTH last 2 h, relative to PTH alone. How it is done: Primary mouse osteoblasts were prepared from calvaria of neonatal mice purchased from Charles River Laboratories. […] Cells were not passaged. Cells were seeded onto 6-well plates (Falcon-Primaria #353846) at a density of 50,000 cells/well for use in antisense oligonucleotide transfection.
In a further embodiment of this invention, the effect of RANKL antisense oligonucleotides and PTH treatment on the expression of RANKL was determined in primary osteoblast cells isolated from mice skull caps.
ISIS 143624 ([…], SEQ ID NO: 348) was used as a control oligonucleotide. […] All cytidine residues are 5-methylcytidines.
Primary osteoblastic cells were transfected for 24 hours with either Isis 180819 (SEQ ID NO: 185) or the control oligo ISIS 143624 (SEQ ID NO: 348) at a dose of […], 125 nM, 250 nM, or 500 nM by the methods described herein but using the transfection reagent FuGENE 6 (Roche Applied Science, Indianapolis, Ind.). During the last 2 hours of oligonucleotide transfection, the cells were treated with 10 nM PTH. The RNA was then harvested and the expression levels of […] were measured by the methods described herein. The results are expressed as percent inhibition relative to PTH treatment alone and represent the average from three experiments.

Series [5] in a line: Serum calcium concentration 24 hours after PTH infusion in mice treated with RANKL antisense oligonucleotides (Table 10). It counts as in vivo, mouse. The conditions noted are these: for serum calcium: then 24 h PTH infusion. As to the method:
In accordance with the present invention, the effect of antisense oligonucleotide inhibition on PTH-induced serum calcium concentration increase was measured in mice. The serum calcium concentration in mice was measured as a function of antisense oligonucleotide dose. Calcitonin, a known bone antiresorptive agent, was used as a control for antiresorptive activity.
as §1

In series [6] the test system is RANKL mRNA. Kind of series: Antisense inhibition of RANKL mRNA expression followed by PTH treatment in primary mouse osteoblast cells: dose response (Table 8). It counts as cell-based. The conditions noted are these: 63 nM oligonucleotide 24 h, 10 nM PTH last 2 h, relative to PTH alone.
[7] abbreviates: 5 mg/kg subcutaneously two weeks.
Setting [8] is: 15 mg/kg subcutaneously two weeks.
[9] abbreviates: 30 mg/kg subcutaneously two weeks.
Setting [10] is: 40 mg/kg subcutaneously two weeks.

Entries after “also recorded” stand apart in the source; their conditions may differ. Strand notation (5' to 3'): a small letter for the sugar, then the base; units joined by * are phosphorothioate-linked, units joined directly phosphodiester-linked; [ ] holds rarer units or linkages, { } end groups; capitals alone tell only the bases. e = 2'-O-(2-methoxyethyl) (MOE); [5mC] = 5-methylcytosine; d = 2'-deoxy (DNA)

Regarding “tgcaggtcccagcgcaatgt (antisense eT*eG*e[5mC]*eA*eG*dG*dT*d[5mC]*d[5mC]*d[5mC]*dA*dG*d[5mC]*dG*d[5mC]*eA*eA*eT*eG*eT) [ISIS 180819, 2′-MOE gapmer targeted to mouse RANKL]”, the “% Inhibition of RANKL” value in series [1] (intraperitoneal injection 15 mg/kg daily 2 weeks, proximal tibia, primer-probe set 1015) was determined as 2%; in series [1] (intraperitoneal injection 15 mg/kg daily 2 weeks, proximal tibia, primer-probe set 1207) it was 0%; in series [1] (intraperitoneal injection 30 mg/kg daily 2 weeks, calvaria, primer-probe set 1015) it was 39%; in series [1] (intraperitoneal injection 30 mg/kg daily 2 weeks, calvaria, primer-probe set 1207), 24%; in series [1] (intraperitoneal injection 30 mg/kg daily 2 weeks, proximal tibia, primer-probe set 1015) it was 0%; in series [1] (intraperitoneal injection 30 mg/kg daily 2 weeks, proximal tibia, primer-probe set 1207), 0%. Further, the “% Inhibition of RANKL” value was found to be 51% in series [1] (intraperitoneal injection 50 mg/kg daily 2 weeks, calvaria, primer-probe set 1015); 54% in series [1] (intraperitoneal injection 50 mg/kg daily 2 weeks, calvaria, primer-probe set 1207); 21% in series [1] (intraperitoneal injection 50 mg/kg daily 2 weeks, proximal tibia, primer-probe set 1015); 13% in series [1] (intraperitoneal injection 50 mg/kg daily 2 weeks, proximal tibia, primer-probe set 1207); 38% in series [1] (subcutaneous injection 30 mg/kg daily 2 weeks, calvaria, primer-probe set 1015); 38% in series [1] (subcutaneous injection 30 mg/kg daily 2 weeks, calvaria, primer-probe set 1207). In addition, the “% Inhibition of RANKL” value in series [1] (subcutaneous injection 30 mg/kg daily 2 weeks, proximal tibia, primer-probe set 1015) was determined as 5%; in series [1] (subcutaneous injection 30 mg/kg daily 2 weeks, proximal tibia, primer-probe set 1207) it was 10%; in series [1] (subcutaneous injection 50 mg/kg daily 2 weeks, calvaria, primer-probe set 1015), 60%; in series [1] (subcutaneous injection 50 mg/kg daily 2 weeks, calvaria, primer-probe set 1207) it was 52%; in series [1] (subcutaneous injection 50 mg/kg daily 2 weeks, proximal tibia, primer-probe set 1015), 32%; in series [1] (subcutaneous injection 50 mg/kg daily 2 weeks, proximal tibia, primer-probe set 1207) it was 36%. The “inhibition of PTH-induced increase in RANKL mRNA expression in the proximal tibia and calvaria” value in series [1] (mice, 2 weeks daily s.c. 30 or 50 mg/kg or i.p. 15, 30 or 50 mg/kg, 24 hours PTH infusion) is given as “capable of inhibiting the PTH-induced increase in RANKL mRNA expression; also recorded: greater inhibition observed in the calvaria”. Also, the “RANKL mRNA, % inhib” value in series [2] (setting [7]), in series [2] (setting [8]) and in series [2] (setting [9]) was 0 % inhib in each case. The “% INHIB (inhibition of mouse RANKL mRNA levels)” value in series [3] is reported as “at least 40%”. For the same substance, the “inhibition of PTH-induced increase in RANKL mRNA expression” value in series [4] was “able to inhibit the PTH-induced increase in RANKL mRNA expression”. Moreover, the “serum calcium” value worked out at 21 mg/dL in series [5] (setting [7]), 17 mg/dL in series [5] (setting [8]) and 19 mg/dL in series [5] (setting [9]). Besides, in series [5] (mice, s.c. two weeks 5, 15, 30 or 40 mg/kg, 24 hours PTH infusion), the “PTH-induced increase in serum calcium concentration” value was “lessen the PTH-induced increase in serum calcium concentration”.

For the substance “143624 (antisense eT*eG*e[5mC]*eT*e[5mC]*dA*dG*d[5mC]*dG*dA*dG*dT*dG*dT*dG*e[5mC]*e[5mC]*eA*eG*e[5mC]) [compound 143624]”, the “% RANKL mRNA inhibition” value in series [6] is given as 4%; in series [4] (125 nM oligonucleotide 24 h), 3%; in series [4] (250 nM oligonucleotide 24 h), 0%; in series [4] (500 nM oligonucleotide 24 h), 9%.

As for “gtcttacacatgtatagaca (antisense eG*eT*e[5mC]*eT*eT*dA*d[5mC]*dA*d[5mC]*dA*dT*dG*dT*dA*dT*eA*eG*eA*e[5mC]*eA) [ISIS 180814, 2′-MOE gapmer targeted to mouse RANKL]”, the “RANKL mRNA, % inhib” value in series [2] (setting [7]) turned out to be 0 % inhib; in series [2] (setting [8]), 0 % inhib; in series [2] (setting [9]), 27 % inhib; in series [2] (setting [10]) it was 6 % inhib. Also, in series [3], the “% INHIB (inhibition of mouse RANKL mRNA levels)” value was “at least 40%”. Besides, the “serum calcium” value stood at 22 mg/dL in series [5] (setting [7]), 20 mg/dL in series [5] (setting [8]), 18 mg/dL in series [5] (setting [9]) and 19 mg/dL in series [5] (setting [10]).

Consider “TGCTCAGCGAGTGTGCCAGC (sugars by position and backbone not given here; further chemistry not fully specified) [ISIS 143624, control oligonucleotide, 2′-MOE gapmer, reference compound]”, for which the “inhibition of PTH-induced increase in RANKL mRNA expression” value in series [4] was “unable to reduce RANKL mRNA levels”.

(Values after US20050060764A1, “Mouse model for bone metabolism” (priority 2003, published 2005).)
